Assay results taken from patent publication US20220145335A1, “Bio-catalyzed Synthesis of Potent Anti-inflammatory Agents from Medroxyprogesterone Acetate” (priority 2022, published 2022).
Read-outs that look alike come from different tables or passages of the source.

Legend:
[1] = test system: T-cells (peripheral blood mononuclear cells); assay: T-cell proliferation assay (PHA-stimulated PBMC, tritiated thymidine incorporation); type: cell-based, human; details: in vitro; for IC50: PHA-stimulated human PBMC, 72 h + 18 h thymidine pulse, read-out: IC50, T-cell proliferation inhibition; for T-cell proliferation inhibitory activity, result in words: compared to substrate (1) and standard prednisolone
Experimental: T-Cell Proliferation Assay The T-cell proliferation inhibitory activity of compounds 2-6 were evaluated by following the method of Nielsen et al. (1998). Peripheral blood mononuclear cells (PBMC) were isolated by Ficoll-Hypaque gradient centrifugation from the blood of healthy human volunteers. The concentration of the cell was adjusted to 2×10^6 cells/mL in RPMI-1640 media containing 5% FBS (Fetal bovine serum) and then 5 μg/mL phytohemagglutinin (PHA) was added into each well of a sterile 96-well plates. Different concentrations of test compounds (0.2, 1, 5, and 25 μg/mL) were then added, each in triplicate. Positive control wells contained cells and PHA, whereas the negative control contains cells alone. The plate was incubated in 5% CO2 at 37° C. for 72 hours and the cells were pulsed with 25 μL of tritiatedthymidine (0.5 μci/well), and the incubation was continued for 18 hours. Cells were harvested on a glass fiber filter, and the effect of the test compounds on proliferation was evaluated using a LS65000 liquid scintillation counter (Beckman Coulter, Fullerton, Calif., USA) quantitatively using a LS65000 liquid scintillation counter (Beckman Coulter, CA, USA). Counts per minute (CPM) were recorded, and the inhibiton of T-cell proliferation was calculated in comparison to control containing cells and PHA.

| Structure (SMILES) | IC50 [1] [µM] | IC50 ([1]; 90 h) [µM] | T-cell proliferation inhibitory activity, result in words [1] | melting point [°C] |
| --- | --- | --- | --- | --- |
| CC(=O)O[C@]1(C(C)=O)CC[C@H]2[C@@H]3C[C@H](C)C4=CC(=O)CC[C@]4(C)[C@H]3CC[C@@]21C [Compound 1, Medroxyprogesterone acetate] | 6.48 ± 5.18 |  |  |  |
| CC(=O)O[C@]1(C(C)=O)CC[C@H]2[C@@H]3C[C@H](C)C4=CC(=O)CC[C@]4(C)[C@H]3C(=O)C[C@@]21C [Compound 2, 17α-Acetoxy-6α-methylpregn-4-ene-3,11,20-trione] | < 0.5 | < 0.5 | potent inhibitors | 238 to 240 |
| CC(=O)O[C@]1(C(C)=O)C[C@@H](O)[C@H]2[C@@H]3C[C@H](C)C4=CC(=O)CC[C@]4(C)[C@H]3C(=O)C[C@@]21C [Compound 3, 17α-Acetoxy-15β-hydroxy-6α-methylpregn-4-ene-3,11,20-trione] |  | 41.6 ± 8.14 | moderately active | 265 to 268 |
| CC(=O)O[C@]1(C(C)=O)CC[C@H]2[C@@H]3C[C@@](C)(O)C4=CC(=O)CC[C@]4(C)[C@H]3C(=O)C[C@@]21C [Compound 4, 17α-Acetoxy-6β-hydroxy-6α-methylpregn-4-ene-3,11,20-trione] |  | 40.14 ± 0.12 | moderately active | 232 to 233 |
| CC(=O)O[C@]1(C(C)=O)C[C@@H](O)[C@H]2[C@@H]3C[C@H](C)C4=CC(=O)CC[C@]4(C)[C@H]3[C@@H](O)C[C@@]21C [Compound 5, 17α-Acetoxy-11β,15β-dihydroxy-6α-methylpregn-4-ene-3,20-dione] | < 0.5 | < 0.5 | potent inhibitors | 228 to 230 |
| CC(=O)O[C@]1(C(C)=O)CC[C@H]2[C@@H]3C[C@@](C)(O)C4=CC(=O)CC[C@]4(C)[C@H]3[C@@H](O)C[C@@]21C [Compound 6, 17α-Acetoxy-11β,6β-dihydroxy-6α-methylpregn-4-ene-3,20-dione] | 8.64 ± 0.02 | 8.64 ± 0.02 | strong activity | 152 to 154 |
| C[C@]12C=CC(=O)C=C1CC[C@@H]1[C@@H]2[C@@H](O)C[C@@]2(C)[C@H]1CC[C@]2(O)C(=O)CO [prednisolone, reference compound] | 9.75 ± 0.03 | 9.75 ± 0.03 |  |  |
